US9695155B2, “Herbicidal substituted pyrimidinyloxy benzene compounds” (E. I. DU PONT DE NEMOURS AND COMPANY, priority 2013, dated 2017)

Columns and labels:
rice = assay: Test B flooded paddy test; format: in vivo, Oryza sativa; conditions: Oryza sativa; Flood, 250 g ai/ha; 0 to 100 scale where 0 is no effect and 100 is complete control; read-out: Plant response rating, Rice
In short: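 2-leaf stage plants; pots flooded to 3 cm, compound added to paddy water, depth maintained. Greenhouse 13–15 d. Visual rating vs untreated controls, 0 (no effect) to 100 (complete control); dash = no result.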

barnyardgrass = assay: Test A preemergence; format: in vivo, Echinochloa crus-galli; conditions: Echinochloa crus-galli, pre-emergence, 240 h
In short: (§1)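 Visual 0–100 rating (100 = complete control) taken about 10 d post-treatment relative to untreated checks. Preemergence: directed soil spray on sown loam/sand pots. Postemergence: seedlings 2–10 cm, 1–2 leaf. Non-phytotoxic solvent formulation with surfactant.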

yellow nutsedge [1] = assay: Test C preemergence; format: in vivo, Cyperus esculentus; conditions: Cyperus, pre-emergence
In short: (§2)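 Visual injury score versus untreated controls, 0 = no effect, 100 = complete control, taken 13 to 15 days after treatment in the greenhouse. Pre-emergence pots held loam/sand; post-emergence plants grew in sphagnum peat/vermiculite mix and were sprayed at the 1- to 4-leaf stage.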

galium = assay: Test C preemergence; format: in vivo, Galium aparine; conditions: Galium, pre-emergence
In short: as §2

oilseed rape = assay: Test C preemergence; format: in vivo, Brassica napus; conditions: Brassica napus, pre-emergence
In short: as §2

yellow nutsedge [2] = assay: Test C postemergence; format: in vivo, Cyperus esculentus; conditions: Cyperus, post-emergence
In short: as §2

wild oat = assay: Test C postemergence; format: in vivo, Avena fatua; conditions: Avena fatua, post-emergence
In short: as §2

morningglory [3] = assay: Test C preemergence; format: in vivo, Ipomoea coccinea; conditions: Ipomoea, pre-emergence
In short: as §2

velvetleaf = assay: Test A postemergence; format: in vivo, Abutilon theophrasti; conditions: Abutilon theophrasti, post-emergence, 240 h
In short: as §1

morningglory [4] = assay: Test C postemergence; format: in vivo, Ipomoea coccinea; conditions: Ipomoea, post-emergence
In short: as §2

corn = assay: Test C preemergence; format: in vivo, Zea mays; conditions: Zea mays, pre-emergence
In short: as §2

kochia = assay: Test C postemergence; format: in vivo, Kochia scoparia; conditions: Bassia scoparia, post-emergence
In short: as §2

blackgrass = assay: Test C postemergence; format: in vivo, Alopecurus myosuroides; conditions: Alopecurus myosuroides, post-emergence
In short: as §2

Question: With N#Cc1cccc(Oc2ncc(Cl)cn2)c1-n1cc(C(F)(F)F)cn1 [Compound 58, 3-[(5-chloro-2-pyrimidinyl)oxy]-2-[4-(trifluoromethyl)-1H-pyrazol-1-yl]benzonitrile] as the molecule, how does the plant injury at 250 g/ha (rice) read?
Answer: The plant injury at 250 g/ha was 50%.

Question: What about the pest or weed control at 125 g/ha (barnyardgrass; 125 g ai/ha, 0 to 100 scale where 0 is no effect and 100 is complete control, read-out: Plant response rating, Barnyardgrass) of the same molecule?
Answer: Its pest or weed control at 125 g/ha is 100%.

Question: What about the pest or weed control at 500 g/ha (barnyardgrass; 500 g ai/ha, 0 to 100 scale, 0 no effect, 100 complete control, approx. 10 days, read-out: Barnyardgrass plant response rating) of the same molecule?
Answer: The pest or weed control at 500 g/ha was 100%.

Question: And the pest or weed control at 62 g/ha (yellow nutsedge [1]; 62 g ai/ha, preemergence, scale 0 (no effect) to 100 (complete control), read-out: Nutsedge, Yellow plant response rating)?
Answer: The pest or weed control at 62 g/ha was 85%.

Question: And the pest or weed control at 125 g/ha (yellow nutsedge [1]; 125 g ai/ha, preemergence, scale 0 (no effect) to 100 (complete control), read-out: Nutsedge, Yellow plant response rating)?
Answer: The pest or weed control at 125 g/ha was 90%.

Question: And the pest or weed control at 250 g/ha (yellow nutsedge [1]; 250 g ai/ha, preemergence, scale 0 (no effect) to 100 (complete control), read-out: Nutsedge, Yellow plant response rating)?
Answer: The pest or weed control at 250 g/ha was 95%.

Question: What about the pest or weed control at 31 g/ha (yellow nutsedge [1]; Preemergence, 31 g ai/ha, scale 0 to 100, 0 no effect, 100 complete control, read-out: Plant response rating, Nutsedge, Yellow) of the same molecule?
Answer: Its pest or weed control at 31 g/ha is 70%.

Question: And the pest or weed control at 62 g/ha (galium; 62 g ai/ha, preemergence, scale 0 (no effect) to 100 (complete control), read-out: Galium plant response rating)?
Answer: Its pest or weed control at 62 g/ha is 100%.

Question: What about the pest or weed control at 125 g/ha (galium; 125 g ai/ha, preemergence, scale 0 (no effect) to 100 (complete control), read-out: Galium plant response rating) of the same molecule?
Answer: Its pest or weed control at 125 g/ha is 100%.

Question: What about the pest or weed control at 250 g/ha (galium; 250 g ai/ha, preemergence, scale 0 (no effect) to 100 (complete control), read-out: Galium plant response rating) of the same molecule?
Answer: The pest or weed control at 250 g/ha was 100%.

Question: And the pest or weed control at 31 g/ha (galium; Preemergence, 31 g ai/ha, scale 0 to 100, 0 no effect, 100 complete control, read-out: Plant response rating, Galium)?
Answer: Its pest or weed control at 31 g/ha is 100%.

Question: And the plant injury at 62 g/ha (oilseed rape; 62 g ai/ha, preemergence, scale 0 (no effect) to 100 (complete control), read-out: Oilseed Rape plant response rating)?
Answer: The plant injury at 62 g/ha was 100%.

Question: And the plant injury at 125 g/ha (oilseed rape; 125 g ai/ha, preemergence, scale 0 (no effect) to 100 (complete control), read-out: Oilseed Rape plant response rating)?
Answer: The plant injury at 125 g/ha was 100%.

Question: What about the plant injury at 250 g/ha (oilseed rape; 250 g ai/ha, preemergence, scale 0 (no effect) to 100 (complete control), read-out: Oilseed Rape plant response rating) of the same molecule?
Answer: Its plant injury at 250 g/ha is 100%.

Question: What about the plant injury at 31 g/ha (oilseed rape; Preemergence, 31 g ai/ha, scale 0 to 100, 0 no effect, 100 complete control, read-out: Plant response rating, Oilseed Rape) of the same molecule?
Answer: Its plant injury at 31 g/ha is 100%.

Question: What about the pest or weed control at 125 g/ha (yellow nutsedge [2]; 125 g ai/ha, postemergence, read-out: Plant response rating (0 to 100), Nutsedge, Yellow) of the same molecule?
Answer: The pest or weed control at 125 g/ha was 15%.

Question: What about the pest or weed control at 250 g/ha (yellow nutsedge [2]; 250 g ai/ha, postemergence, read-out: Plant response rating (0 to 100), Nutsedge, Yellow) of the same molecule?
Answer: Its pest or weed control at 250 g/ha is 15%.

Question: What about the pest or weed control at 31 g/ha (yellow nutsedge [2]; Postemergence, 31 g ai/ha, scale 0 to 100 (0 no effect, 100 complete control), 13 to 15 days, read-out: Plant response rating, Nutsedge, Yellow) of the same molecule?
Answer: Its pest or weed control at 31 g/ha is 5%.

Question: What about the pest or weed control at 62 g/ha (yellow nutsedge [2]; Postemergence, 62 g ai/ha, scale 0 to 100 (0 no effect, 100 complete control), read-out: Plant response rating, Nutsedge, Yellow) of the same molecule?
Answer: Its pest or weed control at 62 g/ha is 5%.

Question: What about the pest or weed control at 125 g/ha (wild oat; 125 g ai/ha, postemergence, read-out: Plant response rating (0 to 100), Oat, Wild) of the same molecule?
Answer: Its pest or weed control at 125 g/ha is 45%.

Question: What about the pest or weed control at 250 g/ha (wild oat; 250 g ai/ha, postemergence, read-out: Plant response rating (0 to 100), Oat, Wild) of the same molecule?
Answer: The pest or weed control at 250 g/ha was 55%.

Question: What about the pest or weed control at 31 g/ha (wild oat; Postemergence, 31 g ai/ha, scale 0 to 100 (0 no effect, 100 complete control), 13 to 15 days, read-out: Plant response rating, Oat, Wild) of the same molecule?
Answer: Its pest or weed control at 31 g/ha is 35%.

Question: And the pest or weed control at 62 g/ha (wild oat; Postemergence, 62 g ai/ha, scale 0 to 100 (0 no effect, 100 complete control), read-out: Plant response rating, Oat, Wild)?
Answer: Its pest or weed control at 62 g/ha is 40%.

Question: And the pest or weed control at 62 g/ha (morningglory [3]; 62 g ai/ha, preemergence, scale 0 (no effect) to 100 (complete control), read-out: Morningglory plant response rating)?
Answer: Its pest or weed control at 62 g/ha is 100%.

Question: What about the pest or weed control at 125 g/ha (morningglory [3]; 125 g ai/ha, preemergence, scale 0 (no effect) to 100 (complete control), read-out: Morningglory plant response rating) of the same molecule?
Answer: The pest or weed control at 125 g/ha was 100%.

Question: And the pest or weed control at 250 g/ha (morningglory [3]; 250 g ai/ha, preemergence, scale 0 (no effect) to 100 (complete control), read-out: Morningglory plant response rating)?
Answer: Its pest or weed control at 250 g/ha is 100%.

Question: And the pest or weed control at 31 g/ha (morningglory [3]; Preemergence, 31 g ai/ha, scale 0 to 100, 0 no effect, 100 complete control, read-out: Plant response rating, Morningglory)?
Answer: Its pest or weed control at 31 g/ha is 100%.

Question: What about the pest or weed control at 125 g/ha (velvetleaf; 125 g ai/ha, 0 to 100 scale where 0 is no effect and 100 is complete control, read-out: Plant response rating, Velvetleaf) of the same molecule?
Answer: The pest or weed control at 125 g/ha was 100%.

Question: And the pest or weed control at 500 g/ha (velvetleaf; 500 g ai/ha, 0 to 100 scale, 0 no effect, 100 complete control, read-out: Plant response rating Velvetleaf)?
Answer: Its pest or weed control at 500 g/ha is 100%.

Question: And the pest or weed control at 125 g/ha (morningglory [4]; 125 g ai/ha, postemergence, read-out: Plant response rating (0 to 100), Morningglory)?
Answer: Its pest or weed control at 125 g/ha is 98%.

Question: And the pest or weed control at 250 g/ha (morningglory [4]; 250 g ai/ha, postemergence, read-out: Plant response rating (0 to 100), Morningglory)?
Answer: The pest or weed control at 250 g/ha was 98%.

Question: And the pest or weed control at 31 g/ha (morningglory [4]; Postemergence, 31 g ai/ha, scale 0 to 100 (0 no effect, 100 complete control), 13 to 15 days, read-out: Plant response rating, Morningglory)?
Answer: Its pest or weed control at 31 g/ha is 80%.

Question: And the pest or weed control at 62 g/ha (morningglory [4]; Postemergence, 62 g ai/ha, scale 0 to 100 (0 no effect, 100 complete control), read-out: Plant response rating, Morningglory)?
Answer: Its pest or weed control at 62 g/ha is 95%.

Question: And the plant injury at 62 g/ha (corn; 62 g ai/ha, preemergence, scale 0 (no effect) to 100 (complete control), read-out: Corn plant response rating)?
Answer: The plant injury at 62 g/ha was 90%.

Question: And the plant injury at 125 g/ha (corn; 125 g ai/ha, preemergence, scale 0 (no effect) to 100 (complete control), read-out: Corn plant response rating)?
Answer: Its plant injury at 125 g/ha is 98%.

Question: What about the plant injury at 250 g/ha (corn; 250 g ai/ha, preemergence, scale 0 (no effect) to 100 (complete control), read-out: Corn plant response rating) of the same molecule?
Answer: The plant injury at 250 g/ha was 98%.

Question: What about the Corn plant response rating (crop injury, 0 = no effect, 100 = complete kill) at 31 g/ha (corn; Preemergence, 31 g ai/ha, scale 0 to 100, 0 no effect, 100 complete control) of the same molecule?
Answer: The Corn plant response rating (crop injury, 0 = no effect, 100 = complete kill) at 31 g/ha was 60%.

Question: And the pest or weed control at 125 g/ha (kochia; 125 g ai/ha, postemergence, read-out: Plant response rating (0 to 100), Kochia)?
Answer: The pest or weed control at 125 g/ha was 100%.

Question: What about the pest or weed control at 250 g/ha (kochia; 250 g ai/ha, postemergence, read-out: Plant response rating (0 to 100), Kochia) of the same molecule?
Answer: The pest or weed control at 250 g/ha was 100%.

Question: What about the pest or weed control at 31 g/ha (kochia; Postemergence, 31 g ai/ha, scale 0 to 100 (0 no effect, 100 complete control), 13 to 15 days, read-out: Plant response rating, Kochia) of the same molecule?
Answer: The pest or weed control at 31 g/ha was 95%.

Question: And the pest or weed control at 62 g/ha (kochia; Postemergence, 62 g ai/ha, scale 0 to 100 (0 no effect, 100 complete control), read-out: Plant response rating, Kochia)?
Answer: Its pest or weed control at 62 g/ha is 95%.

Question: And the pest or weed control at 125 g/ha (blackgrass; 125 g ai/ha, postemergence, read-out: Plant response rating (0 to 100), Blackgrass)?
Answer: The pest or weed control at 125 g/ha was 30%.

Question: And the pest or weed control at 250 g/ha (blackgrass; 250 g ai/ha, postemergence, read-out: Plant response rating (0 to 100), Blackgrass)?
Answer: The pest or weed control at 250 g/ha was 55%.

Question: And the pest or weed control at 31 g/ha (blackgrass; Postemergence, 31 g ai/ha, scale 0 to 100 (0 no effect, 100 complete control), 13 to 15 days, read-out: Plant response rating, Blackgrass)?
Answer: The pest or weed control at 31 g/ha was 10%.

Question: What about the pest or weed control at 62 g/ha (blackgrass; Postemergence, 62 g ai/ha, scale 0 to 100 (0 no effect, 100 complete control), read-out: Plant response rating, Blackgrass) of the same molecule?
Answer: The pest or weed control at 62 g/ha was 15%.
